Test results published in patent publication US9139577B2, “Sulfoximine substituted quinazolines for pharmaceutical compositions” (Boehringer Ingelheim International GmbH, priority 2013, dated 2015).

Key:
[1] = biological target: MNK1 (Homo sapiens (Human), UniProt Q9BUB5); assay: MNK1 in vitro kinase assay (Assay 3), Z'-LYTE; format: biochemical; conditions: for inhibition at 1 µM: compound concentration of 1 μM, read-out: MNK1 % INH
Source text: C. MNK1 In vitro Kinase Assay (Assay 3)
MNK1 Data can be obtained from the MNK1 Z′-LYTE® assay. The MNK1 Z′-LYTE® screening protocol and assay conditions are also described on www.invitrogen.com.
The assay is described as follows:
The Z′-LYTE® biochemical assay employs a fluorescence-based, coupled-enzyme format and is based on the differential sensitivity of phosphorylated and non-phosphorylated peptides to proteolytic cleavage. The peptide substrate is labeled with two fluorophores—one at each end—that make up a FRET pair.
In the primary reaction, the kinase transfers the gamma-phosphate of ATP to a single tyrosine, serine or threonine residue in a synthetic FRET-peptide. In the secondary reaction, a site-specific protease recognizes and cleaves non-phosphorylated FRET-peptides. Phosphorylation of FRET-peptides suppresses cleavage by the Development Reagent. Cleavage disrupts FRET between the donor (i.e., coumarin) and acceptor (i.e., fluorescein) fluorophores on the FRET-peptide, whereas uncleaved, phosphorylated FRET-peptides maintain FRET. A ratiometric method, which calculates the ratio (the Emission Ratio) of donor emission to acceptor emission after excitation of the donor fluorophore at 400 nm, is used to quantitate reaction progress, as shown in the equation below.
ASSAY SETUP: The inhibition of kinase activity of MNK1a was assessed using pre-activated GST-MNK1a. The 2×MKNK1 (MNK1) mixture is prepared in 50 mM HEPES pH 7.5, 0.01% BRIJ-35, 10 mM MgCl2, 4 mM MnCl2, 1 mM EGTA, 2 mM DTT.
The Test Compounds are screened in 1% DMSO (final) in the well.
All Peptide/Kinase Mixtures are diluted to a 2× working concentration in the MNK1 Kinase Buffer.
All ATP Solutions are diluted to a 4× working concentration in Kinase Buffer (50 mM HEPES pH 7.5, 0.01% BRIJ-35, 10 mM MgCl2, 1 mM EGTA).
Development Reagent Solution:
The Development Reagent is diluted in Development Buffer
1. 2.5 μL—4× Test Compound
2. 5 μL—2× Peptide/Kinase Mixture
5. 60-minute Kinase Reaction incubation at room temperature
6. 5 μl—Development Reagent Solution
8. 60-minute Development Reaction incubation at room temperature
9. Read on fluorescence plate reader and analyze the data
The following equations are used for each set of data points: […]
Correction for Background Fluorescence: FlSample-FlTCFl Ctl
% Phosphorylation (% Phos): 1−((Emission Ratio×F100%)−C100%)/((C0%−C100%)+[Emission Ratio×(F100%−F0%)])*100%
% Inhibition: 1−(% PhosSample/% Phos0% Inhibition Ctl)*100
Fl=Fluorescence Intensity
C100%=Average Coumarin emission signal of the 100% Phos. Control
C0%=Average Coumarin emission signal of the 0% Phos. Control
F100%=Average Fluorescein emission signal of the 100% Phos. Control
F0%=Average Fluorescein emission signal of the 0% Phos. Control
SelectScreen® Kinase Profiling Service uses XLfit from IDBS.

[2] = biological target: MNK2a (Homo sapiens (Human), UniProt Q9HBH9); assay: MNK2a in vitro kinase assay (Assay 2), ADP-Glo; format: biochemical; conditions: read-out: MNK2 IC50
MNK2a, sequence (Q9HBH9 whole entry): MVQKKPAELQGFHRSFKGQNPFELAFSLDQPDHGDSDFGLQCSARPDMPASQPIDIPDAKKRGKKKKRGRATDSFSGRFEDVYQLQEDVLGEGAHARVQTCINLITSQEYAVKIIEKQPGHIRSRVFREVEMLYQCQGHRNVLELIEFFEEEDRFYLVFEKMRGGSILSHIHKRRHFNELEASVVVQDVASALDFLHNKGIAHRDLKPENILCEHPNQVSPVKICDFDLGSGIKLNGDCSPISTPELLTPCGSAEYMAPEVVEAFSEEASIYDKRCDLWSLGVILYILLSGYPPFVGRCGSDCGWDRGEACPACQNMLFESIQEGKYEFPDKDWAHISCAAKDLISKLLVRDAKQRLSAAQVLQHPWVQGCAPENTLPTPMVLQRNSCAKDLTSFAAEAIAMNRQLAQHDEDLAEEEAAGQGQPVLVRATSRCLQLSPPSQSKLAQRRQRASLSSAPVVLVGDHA

MNK1, sequence (Q9BUB5 other isoform, or with tags, fused parts or gaps): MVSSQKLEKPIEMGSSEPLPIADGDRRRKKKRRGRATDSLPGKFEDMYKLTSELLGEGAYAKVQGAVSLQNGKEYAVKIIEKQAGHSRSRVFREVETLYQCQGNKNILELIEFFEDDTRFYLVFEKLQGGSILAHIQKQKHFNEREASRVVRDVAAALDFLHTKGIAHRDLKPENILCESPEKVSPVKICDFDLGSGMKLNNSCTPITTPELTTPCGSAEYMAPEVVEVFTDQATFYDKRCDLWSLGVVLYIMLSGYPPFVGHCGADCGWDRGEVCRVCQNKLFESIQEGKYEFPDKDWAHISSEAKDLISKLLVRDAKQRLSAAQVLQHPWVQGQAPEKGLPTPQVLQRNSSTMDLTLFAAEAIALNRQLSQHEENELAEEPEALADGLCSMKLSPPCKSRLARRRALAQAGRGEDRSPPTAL

Row | SMILES | inhibition at 1 µM [1] [%] | IC50 [2] [nM] | IC50 [1] [nM]
1 | C#CCNC(=O)[C@@H](C)Oc1cc(F)ccc1Nc1ncnc2cc(N=S3(=O)CCCC3)cc(C)c12 [Example 4.027] | 99 | 1 | 
2 | Cc1cc(N=S(C)(C)=O)cc2ncnc(Nc3ccc(F)cc3O[C@H](C)C(=O)NC3CCOCC3)c12 [Example 4.019] | 92 | 6 | 
3 | Cc1cc(N=S(C)(C)=O)cc2ncnc(Nc3ccc(Cl)cc3O[C@H](C)C(=O)N[C@@H](C)C(F)(F)F)c12 [Example 4.088] | 99 | 2 | 36
4 | O=S1(=Nc2cc(C(F)(F)F)c3c(Nc4ccc(F)cc4OC(CF)CF)ncnc3c2)CCCC1 [Example 1.004] | 79 | 3 | 
5 | Cc1cc(N=S2(=O)CCCC2)cc2ncnc(Nc3ccc(F)cc3O[C@H](C)C(=O)NC3CCOCC3)c12 [Example 4.014] | 96 | 3 | 
6 | Cc1cc(N=S(C)(C)=O)cc2ncnc(Nc3ccc(F)cc3OCC3(C#N)CCC3)c12 [Example 3.014] | 78 | 8 | 
7 | Cc1cc(N=S2(=O)CCCC2)cc2ncnc(Nc3ccc(F)cc3O[C@H](C)C(=O)N(C)C(C)C)c12 [Example 4.003] | 96 | 2 | 
8 | Cc1cc(N=S(C)(C)=O)cc2ncnc(Nc3ccc(F)cc3O[C@H](C)C(=O)N[C@H]3CCOC3)c12 [Example 4.045] | 99 | 3 | 
9 | Cc1cc(N=S2(=O)CCCC2)cc2ncnc(Nc3ccc(F)cc3O[C@H](C)C(=O)N3CCC(O)C3)c12 (some centres unmarked) [Example 4.010] | 89 | 4 | 
10 | Cc1cc(N=S(C)(C)=O)cc2ncnc(Nc3ccc(F)cc3O[C@H](C)C(=O)N(C)CCO)c12 [Example 4.061] | 70 | 13 | 
11 | Cc1cc(N=S2(=O)CCCC2)cc2ncnc(Nc3ccc(F)cc3OC(C)C#N)c12 (centres unmarked) [Example 7.008] | 99 | 3 | 
12 | CCN(CC)C(=O)[C@@H](C)Oc1cc(F)ccc1Nc1ncnc2cc(N=S(C)(C)=O)cc(C)c12 [Example 4.031] | 78 | 8 | 
13 | Cc1cc(N=S2(=O)CCCC2)cc2ncnc(Nc3ccc(F)cc3OCc3ccccc3)c12 [Example 2.004] | 75 | 6 | 
14 | Cc1cc(N=S2(=O)CCCC2)cc2ncnc(Nc3ccc(F)cc3O[C@H](C)C(=O)N[C@@H]3CCC[C@@H]3O)c12 [Example 4.075] | 90 | 9 | 
15 | Cc1cc(N=S(C)(C)=O)cc2ncnc(Nc3ccc(F)cc3OCC3CCOCC3)c12 [Example 3.045] | 78 | 10 | 
16 | Cc1cc(N=S(C)(C)=O)cc2ncnc(Nc3ccc(F)cc3OCCC(F)(F)F)c12 [Example 3.031] |  | 5 | 75
17 | CS(C)(=O)=Nc1cc(F)c2c(Nc3ccc(F)cc3OC(CF)CF)ncnc2c1 [Example 1.018] | 93 | 6 | 
18 | Cc1cc(N=S(C)(C)=O)cc2ncnc(Nc3ccc(F)cc3OCC3(C)COC3)c12 [Example 3.029] | 72 | 17 | 
19 | Cc1cc(N=S(C)(C)=O)cc2ncnc(Nc3ccc(F)cc3O[C@H](C)C(=O)NCCO)c12 [Example 4.029] | 99 | 3 | 
20 | Cc1cc(N=S(C)(C)=O)cc2ncnc(Nc3ccc(F)cc3O[C@H](C)C(=O)N3CCCCC3)c12 [Example 4.062] | 88 | 13 | 
21 | CCOC(=O)[C@@H](C)Oc1cc(F)ccc1Nc1ncnc2cc(N=S(C)(C)=O)cc(C)c12 [Example 3.022] | 98 | 2 | 
22 | Cc1cc(N=S2(=O)CCCC2)cc2ncnc(Nc3ccc(F)cc3O[C@H](C)C(=O)N[C@H]3CCOC3)c12 [Example 4.057] | 102 | 2 | 
23 | Cc1cc(N=S(C)(C)=O)cc2ncnc(Nc3ccc(F)cc3O[C@H](C)C(=O)NC3CCC3)c12 [Example 4.023] | 99 | 5 | 
24 | Cc1cc(N=S(C)(C)=O)cc2ncnc(Nc3ccc(F)cc3OCC3CC3(F)F)c12 (centres unmarked) [Example 3.008] | 89 | 5 | 

Row | SMILES | inhibition at 1 µM [1] [%] | IC50 [2] [nM] | IC50 [1] [nM]
25 | Cc1cc(N=S2(=O)CCCC2)cc2ncnc(Nc3ccc(F)cc3O[C@H](C)C(=O)N3CCCCC3)c12 [Example 4.067] | 97 | 3 | 
26 | CCNC(=O)NC[C@@H](C)Oc1cc(F)ccc1Nc1ncnc2cc(N=S(C)(C)=O)cc(C)c12 [Example 5.006] | 78 | 29 | 
27 | Cc1cc(N=S(C)(C)=O)cc2ncnc(Nc3ccc(F)cc3OC(C)c3ccccn3)c12 (centres unmarked) [Example 3.021] | 86 | 2 | 
28 | Cc1cc(N=S(C)(C)=O)cc2ncnc(Nc3ccc(F)cc3OC(C)c3ccncc3)c12 (centres unmarked) [Example 3.046] | 97 | 2 | 
29 | COCC(=O)N1CCS(=O)(=Nc2cc(C)c3c(Nc4ccc(F)cc4O[C@H](C)c4cc(C)no4)ncnc3c2)CC1 [Example 5.007] | 97 | 4 | 
30 | Cc1cc([C@@H](C)Oc2cc(F)ccc2Nc2ncnc3cc(N=S4(=O)CCN(C)CC4)cc(C)c23)on1 [Example 7.001] | 98 | 1 | 
31 | COCC(C)Oc1cc(F)ccc1Nc1ncnc2cc(N=S(C)(C)=O)cc(C)c12 (centres unmarked) [Example 3.050] | 87 | 32 | 
32 | Cc1cc(N=S(C)(C)=O)cc2ncnc(Nc3ccc(F)cc3OC[C@@H]3CCC(=O)N3)c12 [Example 3.043] | 82 | 5 | 
33 | Cc1cc(N=S(C)(C)=O)cc2ncnc(Nc3ccc(F)cc3O[C@H](C)C(=O)NC3COC3)c12 [Example 4.009] | 99 | 2 | 
34 | Cc1cc(N=S2(=O)CCC2)cc2ncnc(Nc3ccc(F)cc3O[C@H](C)C(F)(F)F)c12 [Example 2.006] |  | 2 | 71
35 | Cc1cc(N=S(C)(C)=O)cc2ncnc(Nc3ccc(F)cc3O[C@H](C)C(=O)N(C)C(C)C)c12 [Example 4.064] | 82 | 8 | 
36 | Cc1cc(N=S(C)(C)=O)cc2ncnc(Nc3ccc(F)cc3OC(C)C(C)(C)C#N)c12 (centres unmarked) [Example 2.010] | 76 | 11 | 
37 | Cc1cc([C@@H](C)Oc2cc(F)ccc2Nc2ncnc3cc(N=S(C)(C)=O)cc(Cl)c23)on1 [Example 1.019] |  | 1 | 54
38 | Cc1cc(N=S2(=O)CCCC2)cc2ncnc(Nc3ccc(F)cc3O[C@H](C)C(=O)NCC(C)O)c12 (some centres unmarked) [Example 4.008] | 97 | 2 | 
39 | CCC(C)Oc1cc(F)ccc1Nc1ncnc2cc(N=S(C)(C)=O)cc(C)c12 (centres unmarked) [Example 3.042] | 78 | 15 | 
40 | CC(=O)NC[C@H](C)Oc1cc(F)ccc1Nc1ncnc2cc(N=S(C)(C)=O)cc(C)c12 [Example 5.002] | 88 | 7 | 
41 | O=S1(=Nc2cc(C(F)(F)F)c3c(Nc4ccc(F)cc4OC(CF)CF)ncnc3c2)CCOCC1 [Example 1.021] | 52 | 1 | 
42 | CCC(C)NC(=O)[C@@H](C)Oc1cc(F)ccc1Nc1ncnc2cc(N=S3(=O)CCCC3)cc(C)c12 (some centres unmarked) [Example 4.050] | 100 | 1 | 
43 | Cc1cc(N=S(C)(C)=O)cc2ncnc(Nc3ccc(F)cc3OC[C@H]3CNC(=O)O3)c12 [Example 3.003] | 73 | 2 | 
44 | Cc1cc(N=S(C)(C)=O)cc2ncnc(Nc3ccc(F)cc3OC(C)CF)c12 (centres unmarked) [Example 1.015] | 100 | 54 | 
45 | Cc1cc(N=S(C)(C)=O)cc2ncnc(Nc3ccc(F)cc3O[C@H](C)C(=O)N=S(C)(C)=O)c12 [Example 4.022] | 85 | 10 | 
46 | Cc1cc(N=S(C)(C)=O)cc2ncnc(Nc3ccc(F)cc3OCc3ccon3)c12 [Example 3.039] |  | 1 | 77
47 | CC(CF)Oc1cc(F)ccc1Nc1ncnc2cc(N=S(C)(C)=O)cc(F)c12 (centres unmarked) [Example 1.006] | 96 | 5 | 
